Experimental data taken from paper PMC2951135 (Journal of medicinal chemistry, 2010).
“Also recorded” adds a separate entry of the source.

Tests used:
[1] = cited from earlier work
[2] = clinical trial abandoned by Genzyme; cited from earlier work
[3] = test system: non iron-overloaded, bile duct-cannulated rats; details: po 300 μmol/kg; cited from earlier work
[4] = pH 7.4
[5] = Control incubation of ester 7 with saline in place of plasma; assay type: in vitro ADME; details: 37 °C, 1 or 2 h
rats [6] = assay: Ten-day toxicity trial in rats; assay type: in vivo, Sprague-Dawley rats
rats [7] = assay: Tissue iron decorporation in rats after 10 days of dosing; assay type: in vivo, Sprague-Dawley rats
[8] = Hydrolysis of ester 7 in rat plasma; assay type: in vitro ADME; details: 37 °C, solubilized in DMSO
[9] = Hydrolysis of ester 7 in monkey plasma; assay type: in vitro ADME, Cebus apella monkeys; details: Cebus apella monkey plasma, 37 °C, solubilized in DMSO
[10] = test system: non iron-overloaded, bile duct-cannulated rats; assay type: in vivo, Sprague-Dawley rats
[11] = test system: iron-overloaded C. apella primates; assay: Chelator-induced iron clearance in iron-overloaded primates; assay type: in vivo, Cebus apella monkeys
[12] = orally once daily 384 μmol/kg/d × 10 d
[13] = po 75 μmol/kg by gavage as monosodium salt

## C[C@]1(C(=O)O)CSC(c2ncccc2O)=N1 [Compound 1, (S)-4,5-dihydro-2-(3-hydroxy-2-pyridinyl)-4-methyl-4-thiazolecarboxylic acid]
[1]
  nephrotoxicity: severely nephrotoxic

## C[C@]1(C(=O)[O-])CSC(c2ccc(O)cc2O)=N1.[Na+] [Compound 2, (S)-2-(2,4-dihydroxyphenyl)-4,5-dihydro-4-methyl-4-thiazolecarboxylic acid]
[2]
  toxicity that led to abandonment of the clinical trial: nephrotoxicity; also recorded: renal toxicity
[3]
  relative percentage of the iron excreted in the bile (rodents): 100%
  relative percentage of the iron excreted in the urine (rodents): 0%

## CCOC(=O)[C@@]1(C)CSC(c2ccc(OCCOCCOC)cc2O)=N1 [Compound 7, ethyl (S)-4,5-dihydro-2-[2-hydroxy-4-(3,6-dioxaheptyloxy)phenyl]-4-methyl-4-thiazolecarboxylate]
[4]
  times more lipophilic than the parent 2: 11,220 times
[5]
  stability of the ester in saline: all of the drug remained in the form of the ester
Rats [6]; [12]
  histopathology: Mild to moderate vacuolar degeneration of the proximal tubular epithelial cells; also recorded: unacceptable renal toxicity
Rats [6]; orally once daily in capsules 192 μmol/kg/d × 10 d
  histopathology: no drug-related abnormalities
Rats [7]; capsules, 192 μmol/kg/d × 10 d
  decrease in cardiac iron vs untreated controls: Neither dose was associated with a reduction in pancreatic or cardiac iron content
  reduction in pancreatic iron vs untreated controls: Neither dose was associated with a reduction in pancreatic or cardiac iron content
Rats [7]; capsules, 384 μmol/kg/d × 10 d
  decrease in cardiac iron vs untreated controls: Neither dose was associated with a reduction in pancreatic or cardiac iron content
  reduction in pancreatic iron vs untreated controls: Neither dose was associated with a reduction in pancreatic or cardiac iron content
[8]
  time for conversion of all of the ester to the active acid 6: 1 to 2 h
[9]
  time for conversion of all of the ester to the active acid 6: 1 to 2 h

## COc1ccc(C2=N[C@@](C)(C(=O)[O-])CS2)c(O)c1.[Na+] [Compound 3, (S)-4,5-dihydro-2-(2-hydroxy-4-methoxyphenyl)-4-methyl-4-thiazolecarboxylic acid]
[1]
  nephrotoxicity: very nephrotoxic; also recorded: unacceptably nephrotoxic
[3]
  relative percentage of the iron excreted in the bile (rodents): 98%
  relative percentage of the iron excreted in the urine (rodents): 2%

## COCCOCCOCCOCCOc1ccc(C2=N[C@@](C)(C(=O)[O-])CS2)c(O)c1.[Na+] [Compound 5, (S)-4,5-dihydro-2-[2-hydroxy-4-(3,6,9,12-tetraoxatridecyloxy)phenyl]-4-methyl-4-thiazolecarboxylic acid]
[10]; po 300 μmol/kg
  ICE in rodents relative to the parent 2: ~11 times

## COCCOCCOCCOc1ccc(C2=N[C@@](C)(C(=O)O)CS2)c(O)c1 [Compound 4, (S)-4,5-dihydro-2-[2-hydroxy-4-(3,6,9-trioxadecyloxy)phenyl]-4-methyl-4-thiazolecarboxylic acid]
[1]
  nephrotoxicity: virtually absent of any nephrotoxicity
[3]
  relative percentage of the iron excreted in the bile (rodents): 90%
  relative percentage of the iron excreted in the urine (rodents): 10%
[11]; monkey, in vivo
  ICE in primates relative to the longer analogue 5: 2.5

## COCCOCCOc1ccc(C2=N[C@@](C)(C(=O)O)CS2)c(O)c1 [Compound 6, (S)-4,5-dihydro-2-[2-hydroxy-4-(3,6-dioxaheptyloxy)phenyl]-4-methyl-4-thiazolecarboxylic acid]
Rats [6]; [12]
  histopathology: no obvious histopathologies; also recorded: cannot be reliably differentiated histologically from the tissues from rats in Group 2; also recorded: no histological abnormalities noted between the treated and the control groups
Rats [7]; capsules, 384 μmol/kg/d × 10 d
  reduction in pancreatic iron vs untreated controls: not when it was dosed in capsules
Rats [7]; gavage as sodium salt, 384 μmol/kg/d × 10 d
  reduction in pancreatic iron vs untreated controls: significant reduction in pancreatic iron
[10]; po 300 μmol/kg in capsules, 48 h sample collection period
  Rodent Iron-Clearing Efficiency: > 26%
[11]; [13]
  Primate Iron-Clearing Efficiency: 28.7 ± 12.4%
  relative percentage of the iron excreted in the urine (primates): 17%
[11]; po 75 μmol/kg in capsules
  Primate Iron-Clearing Efficiency: > 26%
  relative percentage of the iron excreted in the feces (primates): 93%
[11]; primates given the monosodium salt by gavage, rodents capsules
  Performance Ratio (mean ICEprimates/ICErodents): 1.1
